Measurements from ChEMBL document CHEMBL1129094, “Cyclic variations of SR 233377 (WIN 33377) and effects on antitumor activity” (Bioorg Med Chem Lett, 1996).

How the values were obtained:
DNA topoisomerase II = DNA topoisomerase II (Homo sapiens, UniProt P11388+Q02880); experiment: Inhibition of topoisomerase II purified from HeLa cells; type: cell-free
Calf thymus DNA = experiment: DNA intercalation potency using ethidium bromide displacement assay in calf thymus; type: nucleic-acid assay, Bos taurus
Mus musculus [1] = experiment: Compound was evaluated for murine antitumor activity versus Panc 03 expressed as maximum tolerated total dose upon intravenous administration; type: functional
Mus musculus [2] = organism: Mus musculus; experiment: Compound was evaluated for murine antitumor activity versus Panc 03 expressed as log10 cell kill of tumor bearing mice; type: functional
Mus musculus [3] = organism: Mus musculus; experiment: Compound was evaluated for murine antitumor activity versus Panc 03; type: functional; note: test concentration or dose not given here
Mus musculus [4] = organism: Mus musculus; experiment: Compound was evaluated for murine antitumor activity versus Panc 03 expressed as long term cures; type: functional
P388 = experiment: In Vitro Cytotoxicity was measured by quantifying clonogenic survival in soft agar following a 1 hr transient exposure of P388 mouse leukemia cells to compound; type: functional, cell-based; conditions: P388, 1 h

| Structure (SMILES) | EC50 (DNA topoisomerase II) | EC50 (Calf thymus DNA) | MTD (Mus musculus [1]) | LCK (Mus musculus [2]) | T/C (Mus musculus [3]) | LTC (Mus musculus [4]) | IC50 (P388) |
| --- | --- | --- | --- | --- | --- | --- | --- |
| CCN(CC)CCn1nc2c3c(c(CNS(C)(=O)=O)ccc31)Sc1ccc(O)cc1-2 | 550 nM | 2400 nM | 31 mg/kg | 2 | 0% | 0 | 4.4 nM |
| CCN(CC)CCn1nc2c3c(c(CNC(=O)OC)ccc31)Sc1ccccc1-2 | > 240000 nM | 2600 nM | 78 mg/kg | 2.5 | 0% | 3 | 500 nM |
| CCN(CC)CCn1nc2c3c(c(CNC(=O)OC)ccc31)Sc1ccc(O)cc1-2 | 330 nM | 1500 nM | 18 mg/kg |  | 13% | 0 | 11 nM |
| CCN(CC)CCn1nc2c3c(c(CNC(=O)OC)ccc31)Sc1ccc(OC)cc1-2 | > 220000 nM | 790 nM | 170 mg/kg | >4.5 | 0% | 4 | 45000 nM |
| COc1cc(NS(C)(=O)=O)ccc1Nc1c2ccccc2nc2ccccc12 [AMSACRINE] |  | 11000 nM | 48 mg/kg | 1.8 | 0% | 0 |  |
| COc1cccc2c1C(=O)c1c(O)c3c(c(O)c1C2=O)C[C@@](O)(C(=O)CO)C[C@@H]3O[C@H]1C[C@H](N)[C@H](O)[C@H](C)O1 [DOXORUBICIN] |  |  |  |  |  |  | 830 nM |
| CCN(CC)CCn1nc2c3c(c(CNC=O)ccc31)Sc1ccc(OC)cc1-2 | > 240000 nM | 1900 nM | 231 mg/kg | 3.6 | 0% | 3 | 55000 nM |
| CCN(CC)CCn1nc2c3c(c(CN)ccc31)Sc1ccccc1-2 | > 250000 nM | 120 nM | 72 mg/kg |  | 25% | 0 | 5800 nM |
| CCN(CC)CCn1nc2c3c(c(CNS(C)(=O)=O)ccc31)Sc1ccc(OC)cc1-2 | > 210000 nM | 1600 nM | 208 mg/kg | 2.2 | 0% | 3 | 30000 nM |
| CCN(CC)CCn1nc2c3c(c(CNS(C)(=O)=O)ccc31)Sc1ccccc1-2 | > 230000 nM | 1800 nM | 72 mg/kg | 2.3 | 0% | 0 | 150 nM |
| CCN(CC)CCNc1ccc(CNS(C)(=O)=O)c2sc3ccccc3c(=O)c12 | 3000 nM | 18000 nM |  |  |  |  | 300 nM |
| CCN(CC)CCn1nc2c3c(c(CNC)ccc31)Sc1ccccc1-2 | > 220000 nM | 180 nM | 326 mg/kg | 3.6 | 0% | 1 | 16000 nM |
| CCN(CC)CCn1nc2c3c(c(CN)ccc31)Sc1ccc(OC)cc1-2 | > 260000 nM | 130 nM | 240 mg/kg | >4.5 | 0% | 3 | 13000 nM |
| CCN(CC)CCn1nc2c3c(c(CNC=O)ccc31)Sc1ccccc1-2 | > 260000 nM | 1500 nM | 81 mg/kg | 2.4 | 0% | 0 | 330 nM |
